# Measured values: patent US9068343B2, “Construction element” (Termite Solutions Victoria Pty Ltd., priority 2010, dated 2015)
# Key:
# [1] = Thermogravimetric study of the stability of bifenthrin (thermal balance); format: physicochemical; settings: thermogravimetric study using a thermal balance; threshold temperature of decomposition
# Description: In order to determine whether extrusion-based masterbatch preparation was possible without excessive thermal decomposition or volatilization of bifenthrin, a thermogravimetric study was performed using a thermal balance.
# [2] = Evaporative loss of active during extrusion-based masterbatch preparation; format: physicochemical; settings: 10% bifenthrin melt mixed into EVA-LLDPE-silicate carrier resin, masterbatch pellets
# Description: A masterbatch polymeric carrier resin was prepared by melt mixing bifenthrin (10% wt. percentage), low melting EVA polymer and either a high melt index linear low density polyethylene (LLDPE) or low density polyethylene (LDE).
# In this way, 10% of the active bifenthrin was incorporated into an EVA-LLDPE-silicate carrier resin and masterbatch pellets produced.
structure (smiles),measurement,setting,value
Cc1c(COC(=O)[C@@H]2[C@H](/C=C(\Cl)C(F)(F)F)C2(C)C)cccc1-c1ccccc1 (racemic) [bifenthrin],temperature at which degradation of the active occurs,[1],about 180 °C
same,evaporative losses of the active,[2],no measurable evaporative losses
